In patent publication US10076519B2 (CYTOKINETICS, INC., priority 2010, dated 2018):

Test system: rabbit skeletal myofibrils (fast skeletal myofibrils)
Assay: Activation of fast skeletal myofibrils (PUMA assay, PK/LDH-coupled ATPase at pCa25)
Type: biochemical
Conditions: AC1.4 determined according to the procedure of Example 39; reported as class symbols
How it was run: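 Detergent-washed rabbit psoas myofibrils (~90% fast fibres, calcium-regulated) assayed at calcium giving 25% of maximal ATPase rate (pCa25). ADP turnover coupled via pyruvate kinase/lactate dehydrogenase to NADH oxidation, read at 340 nm. Buffer 12 mM PIPES, 2 mM MgCl2, 1 mM DTT, pH 6.8; AC1.4 values derived.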

| Mean AC1.4 | Compound |
| --- | --- |
| D (D=>20 uM) | CC(C)(CNc1ccc(-c2ccc(C(=O)O)c(F)c2)nn1)c1ccc(F)cc1 [2-fluoro-4-(6-{[2-(4-fluorophenyl)-2-methylpropyl]amino}pyridazin-3-yl)benzoic acid] |

Same assay, conditions: median AC1.4 class, procedure of Example 39

| Compound | Mean AC1.4 |
| --- | --- |
| Cn1c(C(N)=O)cnc1-c1ccc(NCC2(c3ncccc3F)CCC2)nn1 [2-[6-({[(3-fluoro(2-pyridyl))cyclobutyl]methyl}ami-no)pyridazin-3-yl]-1-methylimidazole-5-carboxamide] | B (B=1-10 uM) |
| N#Cc1sc(-c2ccc(NCC3(c4ncccc4F)CCC3)nn2)nc1O [2-[6-({[(3-fluoro(2-pyridyl))cyclobutyl]methyl}ami-no)pyridazin-3-yl]-4-hydroxy-1,3-thiazole-5-carbonitrile] | D (D=>20 uM) |
| NC(=O)c1sc(-c2ccc(NCC3(c4ncccc4F)CCC3)nn2)nc1O [2-[6-({[(3-fluoro(2-pyridyl))cyclobutyl]methyl}ami-no)pyridazin-3-yl]-4-hydroxy-1,3-thiazole-5-carboxamide] | B (B=1-10 uM) |
| COc1nc(-c2ccc(NCC3(c4ncccc4F)CCC3)nn2)sc1C(N)=O [2-[6-({[(3-fluoro(2-pyridyl))cyclobutyl]methyl}ami-no)pyridazin-3-yl]-4-methoxy-1,3-thiazole-5-carboxamide] | A (A=<1 uM) |
| COc1nc(-c2ccc(NCC3(c4ncccc4F)CCC3)nn2)sc1C(=O)O [2-[6-({[(3-fluoro(2-pyridyl))cyclobutyl]methyl}ami-no)pyridazin-3-yl]-4-methoxy-1,3-thiazole-5-carboxylic acid] | C (C=10-20 uM) |
| Cc1nc(-c2ccc(NCC3(c4ncccc4F)CCC3)nn2)sc1C(N)=O [2-[6-({[(3-fluoro(2-pyridyl))cyclobutyl]methyl}ami-no)pyridazin-3-yl]-4-methyl-1,3-thiazole-5-carboxamide] | B (B=1-10 uM) |
| CS(=O)(=O)N1Cc2nc(-c3ccc(NCC4(c5ncccc5F)CCC4)nn3)sc2C1 [2-[6-({[(3-fluoro(2-pyridyl))cyclobutyl]methyl}ami-no)pyridazin-3-yl]-5-(methylsulfonyl)-3-pyrrolino[3,4-d]1,3-thiazole] | D (D=>20 uM) |
| N#Cc1cnc(-c2ccc(NCC3(c4ncccc4F)CCC3)nn2)s1 [2-[6-({[(3-fluoro-2-pyridyl)cyclobutyl]methyl}ami-no)pyridazin-3-yl]-1,3-thiazole-5-carbonitrile] | B (B=1-10 uM) |
| O=C(O)c1cnc(-c2ccc(NCC3(c4ncccc4F)CCC3)nn2)s1 [2-[6-({[(3-fluoro-2-pyridyl)cyclobutyl]methyl}ami-no)pyridazin-3-yl]-1,3-thiazole-5-carboxylic acid] | C (C=10-20 uM) |
| NS(=O)(=O)c1cnc(-c2ccc(NCC3(c4ncccc4F)CCC3)nn2)s1 [2-[6-({[(3-fluoro-2-pyridyl)cyclobutyl]methyl}ami-no)pyridazin-3-yl]-1,3-thiazole-5-sulfonamide] | B (B=1-10 uM) |
| Oc1ccc2nc(-c3ccc(NCC4(c5ncccc5F)CCC4)nn3)sc2n1 [2-[6-({[(3-fluoro-2-pyridyl)cyclobutyl]methyl}ami-no)pyridazin-3-yl]-1,3-thiazolino[5,4-b]pyridin-5-ol] | B (B=1-10 uM) |
| NC(=O)c1ccc2nc(-c3ccc(NCC4(c5ncccc5F)CCC4)nn3)sc2n1 [2-[6-({[(3-fluoro-2-pyridyl)cyclobutyl]methyl}ami-no)pyridazin-3-yl]-1,3-thiazolino[5,4-b]pyridine-5-carboxamide] | D (D=>20 uM) |
| NC(=O)c1c[nH]c(-c2ccc(NCC3(c4ncccc4F)CCC3)nn2)n1 [2-[6-({[(3-fluoro-2-pyridyl)cyclobutyl]methyl}ami-no)pyridazin-3-yl]imidazole-4-carboxamide] | B (B=1-10 uM) |
| NC(=O)c1ccnc(-c2ccc(NCC3(c4ncccc4F)CCC3)nn2)n1 [2-[6-({[(3-fluoro-2-pyridyl)cyclobutyl]methyl}ami-no)pyridazin-3-yl]pyrimidine-4-carboxamide] | A (A=<1 uM) |
| O=C1NCc2cc(-c3ccc(NCC4(c5ncccc5F)CCC4)nn3)sc21 [2-[6-({[(3-fluoro-2-pyridyl)cyclobutyl]methyl}ami-no)pyridazin-3-yl]thiopheno[2,3-c]3-pyrrolin-6-one] | B (B=1-10 uM) |
| NC(=O)CNCc1cnc(-c2ccc(NCC3(c4ncccc4F)CCC3)nn2)s1 [2-[({2-[6-({[(3-fluoro-2-pyridyl)cyclobutyl]methyl}ami-no)pyridazin-3-yl]-1,3-thiazol-5-yl}methyl)amino]acetamide] | B (B=1-10 uM) |

Further lines, results first:

| Mean AC1.4 | Compound |
| --- | --- |
| A (A=<1 uM) | CC(C)(N)C(=O)NCc1cnc(-c2ccc(NCC3(c4ncccc4F)CCC3)nn2)s1 [2-amino-N-({2-[6-({[(3-fluoro(2-pyridyl))cyclobutyl]methyl}ami-no)pyridazin-3-yl](1,3-thiazol-5-yl)}methyl)-2-methylpropanamide] |
| A (A=<1 uM) | NCC(=O)NCc1cnc(-c2ccc(NCC3(c4ncccc4F)CCC3)nn2)s1 [2-amino-N-({2-[6-({[(3-fluoro(2-pyridyl))cyclobutyl]methyl}ami-no)pyridazin-3-yl](1,3-thiazol-5-yl)}methyl)acetamide] |

Same assay, conditions: median AC1.4 reported as class; procedure of Example 39

| Compound | Mean AC1.4 |
| --- | --- |
| CS(=O)(=O)N1CCc2nc(-c3ccc(NCC4(c5ncccc5F)CCC4)nn3)sc2C1 [2-[6-({[(3-fluoro(2-pyridyl))cyclobutyl]methyl}ami-no)pyridazin-3-yl]-5-(methylsulfonyl)-4,5,6,7-tetrahydro-1,3-thiazolo[5,4-c]pyridine] | D (D=>20 uM) |
| Cc1cc(NCC2(c3ncccc3F)CCC2)nnc1-c1ncc(C(N)=O)s1 [2-[6-({[(3-fluoro(2-pyridyl))cyclobutyl]methyl}amino)-4-methylpyridazin-3-yl]-1,3-thiazole-5-carboxamide] | A (A=<1 uM) |
| NC(=O)N1CCc2nc(-c3ccc(NCC4(c5ncccc5F)CCC4)nn3)sc2C1 [2-[6-({[(3-fluoro-2-pyridyl)cyclobutyl]methyl}ami-no)pyridazin-3-yl]-4,5,6,7-tetrahydro-1,3-thiazolo[5,4-c]pyridine-5-carboxamide] | D (D=>20 uM) |
| NC(=O)C1CCc2sc(-c3ccc(NCC4(c5ncccc5F)CCC4)nn3)nc21 (centres unmarked) [2-[6-({[(3-fluoro-2-pyridyl)cyclobutyl]methyl}ami-no)pyridazin-3-yl]-4,5,6-trihydrocyclopenta[1,2-d]1,3-thiazole-4-carboxamide] | D (D=>20 uM) |
| O=C(O)C1CCc2sc(-c3ccc(NCC4(c5ncccc5F)CCC4)nn3)nc21 (centres unmarked) [2-[6-({[(3-fluoro-2-pyridyl)cyclobutyl]methyl}ami-no)pyridazin-3-yl]-4,5,6-trihydrocyclopenta[1,2-d]1,3-thiazole-4-carboxylic acid] | D (D=>20 uM) |

The next lines start with the values.

| Mean AC1.4 | Compound |
| --- | --- |
| B (B=1-10 uM) | OCCNCc1cnc(-c2ccc(NCC3(c4ncccc4F)CCC3)nn2)s1 [2-[({2-[6-({[(3-fluoro-2-pyridyl)cyclobutyl]methyl}ami-no)pyridazin-3-yl]-1,3-thiazol-5-yl}methyl)amino]ethan-1-ol] |
| A (A=<1 uM) | CN(Cc1cnc(-c2ccc(NCC3(c4ncccc4F)CCC3)nn2)s1)C(=O)C(C)(C)N [2-amino-N-({2-[6-({[(3-fluoro(2-pyridyl))cyclobutyl]methyl}ami-no)pyridazin-3-yl](1,3-thiazol-5-yl)}methyl)-2-methyl-N-methylpropanamide] |
| A (A=<1 uM) | CC(C)(N)C(=O)NCc1cnc(-c2ccc(NCC(C)(C)c3ncccc3Cl)nn2)s1 [2-amino-N-{[2-(6-{[2-(3-chloro(2-pyridyl))-2-methylpropyl]amino}pyridazin-3-yl)(1,3-thiazol-5-yl)]methyl}-2-methylpropanamide] |
| B (B=1-10 uM) | O=C(O)c1cc(-c2ccc(NC[C@]3(c4ncccc4F)C[C@H](F)C3)nn2)ccc1F [2-fluoro-5-[6-({[3-fluoro-1-(3-fluoro(2-pyridyl))cyclobutyl]methyl}ami-no)pyridazin-3-yl]benzoic acid] |
| B (B=1-10 uM) | NC(=O)Cc1cnc(-c2ccc(NC[C@]3(c4ncccc4Cl)C[C@H](F)C3)nn2)s1 [2-{2-[6-({[1-(3-chloro(2-pyridyl))-3-fluorocyclobutyl]methyl}ami-no)pyridazin-3-yl]-1,3-thiazol-5-yl}acetamide] |
| B (B=1-10 uM) | CNC(=O)Cc1cnc(-c2ccc(NC[C@]3(c4ncccc4Cl)C[C@H](F)C3)nn2)s1 [2-{2-[6-({[1-(3-chloro(2-pyridyl))-3-fluorocyclobutyl]methyl}amino)pyr-idazin-3-yl](1,3-thiazol-5-yl)}-N-methylacetamide] |
| B (B=1-10 uM) | NC(=O)Cc1cnc(-c2ccc(NC[C@]3(c4ncccc4F)C[C@H](F)C3)nn2)s1 [2-{2-[6-({[3-fluoro-1-(3-fluoro(2-pyridyl))cyclobutyl]methyl}ami-no)pyridazin-3-yl]-1,3-thiazol-5-yl}acetamide] |
| B (B=1-10 uM) | O=C(O)Cc1cnc(-c2ccc(NC[C@]3(c4ncccc4F)C[C@H](F)C3)nn2)s1 [2-{2-[6-({[3-fluoro-1-(3-fluoro(2-pyridyl))cyclobutyl]methyl}ami-no)pyridazin-3-yl]-1,3-thiazol-5-yl}acetic acid] |
| A (A=<1 uM) | CNC(=O)Cc1cnc(-c2ccc(NCC3(c4ncccc4Cl)CCC3)nn2)s1 [2-{2-[6-({[(3-chloro(2-pyridyl))cyclobutyl]methyl}ami-no)pyridazin-3-yl](1,3-thiazol-5-yl)}-N-methylacetamide] |
| A (A=<1 uM) | NC(=O)Cc1cnc(-c2ccc(NCC3(c4ncccc4Cl)CCC3)nn2)s1 [2-{2-[6-({[(3-chloro-2-pyridyl)cyclobutyl]methyl}ami-no)pyridazin-3-yl]-1,3-thiazol-5-yl}acetamide] |
| D (D=>20 uM) | CC(C)(C(N)=O)c1cnc(-c2ccc(NCC3(c4ncccc4F)CCC3)nn2)s1 [2-{2-[6-({[(3-fluoro(2-pyridyl))cyclobutyl]methyl}ami-no)pyridazin-3-yl](1,3-thiazol-5-yl)}-2-methylpropanamide] |
